One series concerns human preadipocyte. Briefly: Effect of antisense compound on adipocyte proliferation and differentiation (Adipo Red). It counts as cell-based. Particulars: 300 nM; human preadipocyte. Here is the method: First, human preadipocyte (Human Preadipocytes-sq POIETICS #PT-5020, Sanko Junyaku Co., Ltd.) was suspended in growth medium (#PT-8200, Sanko Junyaku Co., Ltd.), and after adding the suspension to a 96 well culture plate at 1×10^4 cells/well/100 μL, the cells were cultured overnight at 37° C. in the presence of 5% CO2.
The preadipocyte was cultured overnight, and after washing the preadipocyte twice with serum-free DMEM, Opti-MEM was added at 80 μL/well.
Gene transfection reagent Lipofectin was diluted with Opti-MEM to 20 μg/mL, and the dilution was allowed to stand at room temperature for 30 minutes. Next, the antisense oligodeoxynucleotide synthesized as described above was heated at 90° C. for 3 minutes, and after quenching on ice, diluted with Opti-MEM to a concentration 10 times higher than the final concentration. Equal amounts of the Lipofectin in Opti-MEM and the antisense oligodeoxynucleotide in Opti-MEM were mixed, and the mixture was incubated at room temperature for 15 minutes and added to 96 well plate at 20 μL/well. After incubating at 37° C. for 4 hours in the presence of 5% CO2, it was used for examination as described below.
The differentiation medium was prepared by using growth medium (#PT-8200, Sanko Junyaku Co., Ltd.) and supplement kit (PGM Single Quots, #PT-9500, Sanko Junyaku Co., Ltd.) according to the instruction of the kit. Next, the culture supernatant containing the Lipofectin was removed from the 96 well plate prepared in the above (2), and the plate was washed twice with serum-free DMEM, and the differentiation medium prepared as described above was added at 100 μL/well. The plate was then incubated at 37° C. for 5 days to 15 days in the presence of 5% CO2.
Accumulation of the neutral fat in the adipocyte was determined by fluorometry using Adipo Red stain.
After taking the 96 well plate out of the CO2 incubator, the plate was allowed to stand until it reached room temperature. The plate was centrifuged at 300 g (1200 rpm) for 10 minutes at room temperature to remove the medium. Next, after gently washing with PBS (SIGMA) at 200 μL/well, PBS was added to the well at 200 μL/well. Next, Adipo Red Assay Reagent (Adipo Red, Cat. #PT-7009, Lot.3F0497, A Cambrex Company) was added at 5 μL/well, and the plate was allowed to stand at room temperature for at least 10 minutes to thereby stain the neutral fat accumulated in the adipocyte. The fat accumulation was determined by measuring fluorescence intensity in a fluorometer at an excitation wavelength of 485 nm and an emission wavelength of 535 nm.
The suppression rate of the adipocyte differentiation was calculated by converting the fluorescence intensity of the well transfected with the antisense compound in relation to the fluorescence intensity of the well without transfection with the antisense compound which was assumed as 100%. The result was rated “+” when the suppression rate was at least 25%, “++” when the suppression rate was at least 50%, and “+++” when the suppression rate was at least 75%.

The next series concerns human meltrin α RNA. Briefly: Suppression of human meltrin α expression by antisense compound in RD cell (real time PCR). The format is cell-based. Particulars: 50 nM; RD cell. The gist of the method:
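RD cells transfected with heat-denatured antisense oligodeoxynucleotide plus Lipofectin in Opti-MEM for 4 h at 37° C, then cultured 18 h. Meltrin α RNA quantified by TaqMan RT-PCR against plasmid standard curve, GAPDH-corrected; suppression vs untreated cells, rated +/++/+++ for ≥30/50/70%.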
(Real-time PCR tracks product formation cycle by cycle.)

In the oligonucleotide strings, read from the 5' end, every base follows the letter of its sugar. An asterisk marks phosphorothioate; unmarked linkages are phosphodiester. Other units and linkages are bracketed, terminal groups are in braces. A string of capitals states the bases alone. d = 2'-deoxy (DNA)

Consider “2 (dC*dT*dG*dG*dT*dT*dA*dA*dT*dG*dG*dT*dT*dC*dA*dC*dA*dT*dC*dT) [compound 2]”, for which the “Supression of adipose differentiation 300 nM” value with human preadipocyte is “++ (“++” when the suppression rate was at least 50%)”. Further, in the series with human meltrin α RNA, the “Supression of expression, 50 nM” value was “++ (“++” when the suppression rate was at least 50%)”.
